This note sets out measurements from US11731943B2, “Therapeutic compounds, compositions and methods of use thereof” (priority 2016, dated 2023).

Where two headings read alike, the source gives them in different places.

Test [1] deals with isolated recombinant JAK2 kinase domain (Homo sapiens (Human), UniProt O60674). As to the kind of experiment: JAK2 enzyme assay (Caliper LabChip, Ki). The test is classed as biochemical. The protocol:
(§1) JAK Enzyme Assays were carried out as follows:
The activity of the isolated recombinant JAK1 and JAK2 kinase domain was measured by monitoring phosphorylation of a peptide derived from JAK3 ([…] fluorescently labeled on the N-terminus with 5-carboxyfluorescein) using the Caliper LabChip® technology (Caliper Life Sciences, Hopkinton, Mass.). […] Reactions were incubated at 22° C. in 384-well polypropylene microtiter plates for 30 minutes and then stopped by addition of 25 μL of an EDTA containing solution (100 mM HEPES buffer (pH 7.2), 0.015% Brij-35, 150 mM EDTA), resulting in a final EDTA concentration of 50 mM. After termination of the kinase reaction, the proportion of phosphorylated product was determined as a fraction of total peptide substrate using the Caliper LabChip® 3000 according to the manufacturer's specifications.

Test [2] concerns the target isolated recombinant JAK1 kinase domain (Homo sapiens (Human), UniProt P23458). Put plainly: JAK1 enzyme assay (Caliper LabChip, Ki). The test is classed as biochemical. The protocol:
as §1
The activity of the isolated recombinant JAK1 and JAK2 kinase domain was measured by monitoring phosphorylation of a peptide derived from JAK3 (Val-Ala-Leu-Val-Asp-Gly-Tyr-Phe-Arg-Leu-Thr-Thr, fluorescently labeled on the N-terminus with 5-carboxyfluorescein) using the Caliper LabChip® technology (Caliper Life Sciences, Hopkinton, Mass.). […] Reactions were incubated at 22° C. in 384-well polypropylene microtiter plates for 30 minutes and then stopped by addition of 25 μL of an EDTA containing solution (100 mM HEPES buffer (pH 7.2), 0.015% Brij-35, 150 mM EDTA), resulting in a final EDTA concentration of 50 mM. After termination of the kinase reaction, the proportion of phosphorylated product was determined as a fraction of total peptide substrate using the Caliper LabChip® 3000 according to the manufacturer's specifications. Ki values were then determined using the Morrison tight binding model (Morrison, J. F., Biochim. Biophys. Acta. 185:269-296 (1969); William, J. W. and Morrison, J. F., Meth. Enzymol., 63:437-467 (1979)) modified for ATP-competitive inhibition [Ki=Ki,app/(1+[ATP]/Km,app)].

isolated recombinant JAK1 kinase domain, sequence (P23458 875-1153): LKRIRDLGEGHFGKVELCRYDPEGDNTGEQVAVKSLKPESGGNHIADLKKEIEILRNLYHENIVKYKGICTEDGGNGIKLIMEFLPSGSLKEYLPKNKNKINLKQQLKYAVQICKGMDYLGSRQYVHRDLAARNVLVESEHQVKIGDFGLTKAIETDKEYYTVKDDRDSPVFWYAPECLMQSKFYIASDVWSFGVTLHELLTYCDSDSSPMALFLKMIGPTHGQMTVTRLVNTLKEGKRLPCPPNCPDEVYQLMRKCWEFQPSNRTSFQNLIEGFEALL
isolated recombinant JAK2 kinase domain, sequence (O60674 849-1124): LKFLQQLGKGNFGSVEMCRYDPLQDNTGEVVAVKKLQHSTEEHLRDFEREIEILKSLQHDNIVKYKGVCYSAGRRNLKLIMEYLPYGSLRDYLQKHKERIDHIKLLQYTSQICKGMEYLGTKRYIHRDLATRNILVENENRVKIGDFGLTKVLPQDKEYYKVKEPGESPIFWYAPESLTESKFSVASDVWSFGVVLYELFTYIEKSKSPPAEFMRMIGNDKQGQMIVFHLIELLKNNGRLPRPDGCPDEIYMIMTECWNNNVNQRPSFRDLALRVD

By Ki is commonly meant the equilibrium dissociation constant of an inhibitor or competing ligand from its target. Turning to `N#CC[C@]1(n2cc(C(N)=O)c(NC(=O)C3CC3)n2)CC[C@H](NCc2cccc(C#N)c2)CC1` [Example 123], the Ki in test [1] was over 319 nM; in test [2] it was over 562 nM.
For `N#CC[C@]1(n2cc(C(N)=O)c(NC(=O)C3CC3)n2)CC[C@@H](NCc2cccc(C#N)c2)CC1` [Example 124], the inhibitory constant (Ki) is 273 nM in test [1] and 32.7 nM in test [2].
`N#CC[C@]1(n2cc(C(N)=O)c(NC(=O)C3CC3)n2)CC[C@H](NCCC(F)(F)F)CC1` [Example 125]: the Ki in test [1] came out at 78.3 nM; in test [2], 7.3 nM.
Take `N#CC[C@]1(n2cc(C(N)=O)c(NC(=O)C3CC3)n2)CC[C@@H](NCCC(F)(F)F)CC1` [Example 126]: the results for the Ki in test [1] and in test [2] were over 319 nM and 188 nM, respectively.
On to `N#CC[C@]1(n2cc(C(N)=O)c(NC(=O)C3CC3)n2)CC[C@H](NCc2ccc(-c3ccccc3)cc2)CC1` [Example 127], for which the inhibitory constant (Ki) is over 319 nM in test [1] and over 562 nM in test [2].
For `CN(CC(F)(F)F)[C@H]1CC[C@@](CC#N)(n2cc(C(N)=O)c(NC(=O)C3CC3)n2)CC1` [Example 130], the Ki in test [1] was over 319 nM; in test [2], over 562 nM.
Consider `COC1(C(F)(F)F)CN([C@H]2CC[C@](CC#N)(n3cc(C(N)=O)c(NC(=O)C4CC4)n3)CC2)C1` [Example 132], for which the Ki was over 319 nM in test [1] and 217 nM in test [2] (read-out: JAK1 Ki).
In the case of `CC(C)OC1(C(F)(F)F)CN([C@H]2CC[C@](CC#N)(n3cc(C(N)=O)c(NC(=O)C4CC4)n3)CC2)C1` [Example 136], the Ki was over 319 nM in test [1] and 463 nM in test [2] (read-out: JAK1 Ki).
For `N#CC[C@]1(n2cc(C(N)=O)c(NC(=O)C3CC3)n2)CC[C@H](N2CC(O)(C(F)(F)F)C2)CC1` [Example 138, 1-[1-(cyanomethyl)-4-[3-hydroxy-3-(trifluoromethyl)azetidin-1-yl]cyclohexyl]-3-(cyclopropanecarbonylamino) pyrazole-4-carboxamide] the same measures were over 319 nM and over 562 nM.
As for `CN(C)C(=O)c1ccccc1-c1ccc(CN2CCC(CC#N)(n3cc(C(N)=O)c(NC(=O)C4CC4)n3)CC2)cc1` [Example 144, 1-[4-(cyanomethyl)-1-[[4-[2-(dimethylcarbamoyl)phenyl]phenyl]methyl]-4-piperidyl]-3-(cyclopropanecarbonylamino) pyrazole-4-carboxamide], the Ki in test [1] was found to be 63.5 nM; in test [2] (read-out: JAK1 Ki) it was 8.8 nM.
`N#CCC1(n2cc(C(N)=O)c(NC(=O)C3CC3)n2)CCN(Cc2ccc(-c3cccc(C(F)(F)F)c3)cc2)CC1` [Example 150, 1-[4-(cyanomethyl)-1-[[4-[3-(trifluoromethyl)phenyl]phenyl]methyl]-4-piperidyl]-3-(cyclopropanecarbonylamino) pyrazole-4-carboxamide]: the inhibition constant (Ki) was determined as 208 nM in test [1] and 15.9 nM in test [2] (read-out: JAK1 Ki).
Turning to `N#CCC1(n2cc(C(N)=O)c(NC(=O)C3CC3)n2)CCN(Cc2ccc(-c3cccnc3)cc2)CC1` [Example 158], the results for the inhibition constant (Ki) in test [1] and in test [2] (read-out: JAK1 Ki) were 39.4 nM and 8 nM, respectively.
As to `N#CCC1(n2cc(C(N)=O)c(NC(=O)C3CC3)n2)CCN(Cc2ccc(-c3ccncc3)cc2)CC1` [Example 159, 1-[4-(cyanomethyl)-1-[[4-(4-pyridyl)phenyl]methyl]-4-piperidyl]-3-(cyclopropanecarbonylamino) pyrazole-4-carboxamide], the Ki in test [1] came out at 101 nM; in test [2] (read-out: JAK1 Ki), 19 nM.
For `N#CC[C@]1(n2cc(C(N)=O)c(NC(=O)C3CC3)n2)CCN(Cc2ccccc2)C[C@H]1F` [Example 165] the same measures were 211 nM and 27.1 nM.
The like results for `N#CCC1(n2cc(C(N)=O)c(NC(=O)C3CC3)n2)CCN(C(=O)C2CC(F)(F)C2)CC1` [Example 168, 1-[4-(cyanomethyl)-1-(3,3-difluorocyclobutanecarbonyl)-4-piperidyl]-3-(cyclopropanecarbonylamino) pyrazole-4-carboxamide] were, in that order, 93.3 nM and 7.5 nM.
The like results for `N#CCC1(n2cc(C(N)=O)c(NC(=O)C3CC3)n2)CCN(C(=O)CC(F)(F)F)CC1` [Example 170, 1-[4-(cyanomethyl)-1-(3,3,3-trifluoropropanoyl)-4-piperidyl]-3-(cyclopropanecarbonylamino) pyrazole-4-carboxamide] were, in that order, 70.9 nM and 6.7 nM.
On to `CC(F)(F)C(=O)N1CCC(CC#N)(n2cc(C(N)=O)c(NC(=O)C3CC3)n2)CC1` [Example 171, 1-[4-(cyanomethyl)-1-(2,2-difluoropropanoyl)-4-piperidyl]-3-(cyclopropanecarbonylamino) pyrazole-4-carboxamide], for which the inhibitory constant (Ki) in test [1] amounted to 30.3 nM; in test [2] (read-out: JAK1 Ki) it was 6.6 nM.
Regarding `N#CC[C@]1(n2cc(C(N)=O)c(NC(=O)C3CC3)n2)CC[C@H](NC2CC(F)(F)C2)CC1` [Example 172, 1-[1-(cyanomethyl)-4-[(3,3-difluorocyclobutyl)amino]cyclohexyl]-3-(cyclopropanecarbonylamino) pyrazole-4-carboxamide], the results for the Ki in test [1] and in test [2] were over 319 nM and over 562 nM, respectively.
As to `N#CC[C@]1(n2cc(C(N)=O)c(NC(=O)C3CC3)n2)CC[C@@H](NC2CC(F)(F)C2)CC1` [Example 173, 1-[1-(cyanomethyl)-4-[(3,3-difluorocyclobutyl)amino]cyclohexyl]-3-(cyclopropanecarbonylamino) pyrazole-4-carboxamide], the Ki in test [1] was 71.3 nM; in test [2], 8.7 nM.
Turning to `N#CC[C@]1(n2cc(C(N)=O)c(NC(=O)C3CC3)n2)CC[C@H](NC2CCC(F)(F)CC2)CC1` [Example 174, 1-[1-(cyanomethyl)-4-[(4,4-difluorocyclohexyl)amino]cyclohexyl]-3-(cyclopropanecarbonylamino) pyrazole-4-carboxamide], the results for the inhibition constant (Ki) in test [1] and in test [2] were over 319 nM and over 562 nM, respectively.
For `N#CC[C@]1(n2cc(C(N)=O)c(NC(=O)C3CC3)n2)CC[C@@H](NC2CCC(F)(F)CC2)CC1` [Example 175, 1-[1-(cyanomethyl)-4-[(4,4-difluorocyclohexyl)amino]cyclohexyl]-3-(cyclopropanecarbonylamino) pyrazole-4-carboxamide] the same measures were 321 nM and 14.1 nM.
The like results for `N#CC[C@]1(n2cc(C(N)=O)c(NC(=O)C3CC3)n2)CC[C@H](N2CC(F)(F)C2)CC1` [Example 179, 1-[1-(cyanomethyl)-4-(3,3-difluoroazetidin-1-yl)cyclohexyl]-3-(cyclopropanecarbonylamino) pyrazole-4-carboxamide] were, in that order, over 319 nM and over 562 nM.
For the compound `N#CC[C@]1(n2cc(C(N)=O)c(NC(=O)C3CC3)n2)CC[C@H](N2CC(F)C2)CC1` [Example 181, 1-[1-(cyanomethyl)-4-(3-fluoroazetidin-1-yl)cyclohexyl]-3-(cyclopropanecarbonylamino) pyrazole-4-carboxamide], the inhibition constant Ki in test [1] is over 319 nM; in test [2], over 562 nM.
Regarding `N#CCC1(n2cc(C(N)=O)c(NC(=O)C3CC3)n2)CCN(CCc2ccccc2)CC1` [Example 183, 1-[4-(cyanomethyl)-1-(2-phenylethyl)-4-piperidyl]-3-(cyclopropanecarbonylamino) pyrazole-4-carboxamide], the Ki in test [1] was over 319 nM; in test [2] (read-out: JAK1 Ki) it was 88.3 nM.
